Test results published in paper PMC5841354, “Gomesin peptides prevent proliferation and lead to the cell death of devil facial tumour disease cells” (Cell Death Discovery, 2018).

Columns and labels:
cultured DFTD cells = conditions: cited from earlier work
Source text: In this pioneer study, we examined for the first time, in our knowledge, the therapeutic potential of spider-venom peptides against DFTD. Our study provides a molecular and mechanistic characterisation of the mode of action of gomesin peptides to prevent the proliferation of DFTD cells. This is especially relevant since the Tasmanian devil population has declined by at least 80%[1] and currently the therapeutic strategies to slow down the progression of DFTD in infective-devils have been ineffective. That was the case of vincristine, a chemotherapeutic agent used in human and veterinary medici ...

FIBS cells = assay: MTT cell viability, non-transformed fibroblasts (FIBS); format: cell-based, Tasmanian devil (Sarcophilus harrisii); conditions: 50 µg/mL, 48 h
Source text: (§1) All DFTD (DFTD1, DFTD2, and DFTD4) and fibroblast (FIBS) cell lines were obtained from the Department of Primary Industries, Parks, Water, and Environment, State Government of Tasmania (DPIPWE) and were established as part of management plan and adhere to a standard operating practice. The DFTD1 cell line with catalogue number 3287 is derived from the tumour from a female devil (tag number: 06/2887) collected at St Marys, Eastern Tasmania in 2006. DFTD2 cell line with catalogue number 8961 was developed from a tumour from a male devil (tag number: 12/0625) collected at Kempton, Northern Tasmania in 2012. The DFTD4 cell line with catalogue number 4099 was developed from the tumour of a male devil (tag number: 07/0192) that was collected at Freycinet, east coast of Tasmania in 2007 and Fibroblasts cells (FIBS) with catalogue number 497 were obtained from a healthy devil male pup (tag number: 05/0962) held at Mount Pleasant, Southeastern of Tasmania in 2005.
(§2) Devil Facial Tumor cancer cell lines, and the control Tasmanian Devil fibroblast (FIBS) healthy cell line were maintained in a humidified incubator at 35 °C and 5% CO2. The DFTD cell lines were cultured in RPMI-1640 medium supplemented with 10% FCS, and 2 mM Glutamax. The FIBS was grown in GIBCO AmnioMAX-C100 Basal Medium liquid, containing AmnioMAX-C100 supplement. Penicillin/streptomycin (PS) (100 U/ml each) was added to both media. The cells were passaged at ~90% confluency. Functional studies were performed with passages up to 20. All cell lines were mycoplasma free.
(§3) Cell viability as an indicator of the number of viable and proliferative cells was measured by MTT according to the protocol of the manufacturer (Sigma-Aldrich, Australia). In brief, 8000 DFTD and 5000 FIBS cells/well were seeded in a 96-flat adherent microtiter well plate for 24 h to allow cell adhesion. Gomesin peptides and/or analogues were then added to the plates to measure MTT reduction. Plates were measured after 48 h at 540 nm absorbance in a microplate reader (BIOTEK PowerWave XS, USA). 0.1% SDS was used as a positive control (100% toxicity). A row of untreated cells was used to define 100% viability and blank wells containing only media were used to extract background. The concentration of gomesin peptides causing 50% inhibition (EC50) in DFTD and FIBS cells was determined using GraphPad Prism Software (Graphpad Inc, USA).

DFTD4 cells [1] = assay: Cell cycle analysis (PI, flow cytometry); format: cell-based, Tasmanian devil (Sarcophilus harrisii); conditions: 50 μg/mL, 24 h, mean ± SEM, three independent experiments
Protocol: DFTD4 cells were synchronised by removing serum from the medium for ~24 h. Cells were then transferred into medium containing serum and treated with AgGom or HiGom at 50 µg/mL for 24 h. Cells were detached mechanically, washed with PBS and fixed with 70% ethanol for ~1 h at 4 °C. Ethanol was removed by centrifugation (453 g for 5 min) and cells were washed with PBS. Cells were treated with 5 µL of 10 µg/mL ribonuclease A to remove RNA contamination and further incubated for 1 h at 37 °C to allow release of low-molecular weight DNA. Cell pellets were stained with 10 µL of propidium iodide (PI) (1 mg/ml) and analysed at a maximum emission of 605 nm using a LSR Fortessa 5 analyser (BD Biosciences, San Diego, CA, US). Approximately 10,000 events were recorded and data were analysed using FlowJo software v10.06 (FlowJo, US).

DFTD4 cells [2] = assay: qRT-PCR of cell cycle check-point, pro-survival and apoptosis genes; format: cell-based, Tasmanian devil (Sarcophilus harrisii); conditions: 50 μg/mL, vs. vehicle
Protocol: Total RNA was extracted from both untreated (control) and gomesin-treated DFTD4 cells using an RNeasy kit (Qiagen, Australia) and 1 µg was reverse-transcribed into cDNA using SensiFast (Bioline, UK). Quantitative real time-PCR (qRT-PCR) to quantitate mRNA expression was performed on a LightCycler Instrument (Roche Molecular Biochemicals, Australia) with Tasmanian devil 18S used as the reference (housekeeper) gene. All primers are listed in Supplementary.

DFTD4 cells [3] = assay: Annexin V-FITC/PI apoptosis and necrosis; format: cell-based, Tasmanian devil (Sarcophilus harrisii); conditions: 50 µg/mL, 24 h
Protocol: Apoptosis in DFTD4 cells treated with AgGom or HiGom was measured using an Annexin V-FITC Apoptosis detection kit in combination with a Canto II high-throughput fluorescence-activated cell sorter (BD Biosciences, USA). Briefly, cells were seeded at a density of 100,000 cells/well in a round-bottom 96-well plate and treated with 50 µg/mL AgGom or HiGom for 24 h. The cells were collected mechanically, washed twice with PBS and once with wash buffer provided by the manufacturer. Cells were stained simultaneously with FITC-labelled annexin V and PI for 30 min in the dark and at room temperature before being analysed.

DFTD4 cells [4] = assay: MTT cell viability, DFTD4 cells; format: cell-based, Tasmanian devil (Sarcophilus harrisii)
Source text: as §1, §2, §3

DFTD4 cells [5] = assay: Reactive oxygen species (Carboxy-H2DCFDA, flow cytometry); format: cell-based, Tasmanian devil (Sarcophilus harrisii); conditions: 50 μg/mL, 24 h, vs. untreated
Protocol: An Amplex Red Hydrogen Peroxidase assay kit (Invitrogen, Australia) was used to measure reactive oxygen species (ROS) generation in DFTD4 cells. A fluorescence probe that detects intracellular H2O2, Carboxy-H2DCFDA, was added 30 min prior to collecting cells to measure ROS production in DFTD4 cells that were previously treated with gomesin peptides at 50 µg/mL for 24 h. Fluorescent cells were washed twice with PBS prior to analysis on a FACSCalibur flow cytometer (BD Biosciences, USA) using excitation and emission wavelengths of 492 nm and 517 nm, respectively. Approximately 10,000 events were recorded per sample and the readout was analysed using FlowJo software v10.06 (FlowJo, USA).

DFTD1 cells = assay: MTT cell viability, DFTD1 cells; format: cell-based, Tasmanian devil (Sarcophilus harrisii); conditions: Table 3, 48 h
Source text: as §1, with “2005. […]” for “2005.”
(§4) Cell viability as an indicator of the number of viable and proliferative cells was measured by MTT according to the protocol of the manufacturer (Sigma-Aldrich, Australia). […] Plates were measured after 48 h at 540 nm absorbance in a microplate reader (BIOTEK PowerWave XS, USA). […]

DFTD4 cells [6] = assay: Mitochondrial membrane potential (Rhodamine 123); format: cell-based, Tasmanian devil (Sarcophilus harrisii); conditions: 50 µg/mL, 24 h, vs. vehicle
Protocol: We measured the mitochondrial membrane potential (MMP) using Rhodamine 123 (Rhod-123) (Sigma-Aldrich, Australia), a cationic dye that is localised in mitochondria. Loss-of-MMP results in loss-of-Rhod-123 fluorescence. Approximately 1 × 10^6 DFTD4 cells treated with AgGom or HiGom at 50 µg/mL for 24 h were collected and resuspended in 0.1 ml of culture medium, stained with 10 µg/mL Rhod-123 for 30 min, and then washed with PBS. The intracellular concentration of Rho123 was determined immediately after by flow cytometry (BD Biosciences, USA) using an excitation wavelength of 488 nm. The data were analysed using FlowJo v10.06 (FlowJo, USA).

DFTD2 cells = assay: MTT cell viability, DFTD2 cells; format: cell-based, Tasmanian devil (Sarcophilus harrisii); conditions: Table 3, 48 h
Source text: as §1, with “2005. […]” for “2005.”
as §4

| Compound | apoptotic activity against cultured DFTD cells (cultured DFTD cells) | deleterious effects on FIBS viability (FIBS cells) | G0/G1 (DFTD4 cells [1]) | G2/M (DFTD4 cells [1]) | S-phase (DFTD4 cells [1]) | expression of BCL2 (DFTD4 cells [2]) | expression of p21 (DFTD4 cells [2]) | expression of p53 (DFTD4 cells [2]) | expression of pro-survival gene MCL1 (DFTD4 cells [2]) | p27 expression (DFTD4 cells [2]) | early or late apoptotic cell ratio (DFTD4 cells [3]) | necrosis of DFTD cells compared to untreated cells (DFTD4 cells [3]) | cell viability / anti-proliferative activity in DFTD4 cells (DFTD4 cells [4]; 50 µg/mL, 48 h) | EC50 (DFTD4 cells [4]; DFTD4 cells, 48 h exposure, three independent experiments in triplicate) [µg/mL] | ROS (DFTD4 cells [5]) | EC50 (µg/mL) DFTD1 (DFTD1 cells) [µg/mL] | MMP (DFTD4 cells [6]) | EC50 (µg/mL) DFTD2 (DFTD2 cells) [µg/mL] |
| --- | --- | --- | --- | --- | --- | --- | --- | --- | --- | --- | --- | --- | --- | --- | --- | --- | --- | --- |
| CC(C)Cn1cnc2c(N)nc3ccccc3c21 [imiquimod] | displayed apoptotic activity |  |  |  |  |  |  |  |  |  |  |  |  |  |  |  |  |  |
| ZCRRLCYKQRCVTYCRGR-NH2 (bicyclic or more) [AgGom, 18-residue spider peptide gomesin first isolated from hemocytes of Acanthoscurria gomesiana] |  | not statistically significant | 39.9 ± 1.32 | 14.3 ± 0.9 | 11.47 ± 1.35 | enhanced | induction | enhanced | induction | statistically significant increase | not altered | significantly increased necrosis | dramatically reduced the cell viability | 25.25 | significant increase in ROS | 20.4 | significant decrease in MMP | 12.29 |
